Laboratory results: patent publication US20230339874A1, “PIPERAZINYL COMPOUNDS AND METHODS FOR TREATING NEMATODE INFECTIONS” (The Governing Council of the University of Toronto, priority 2020, published 2023)
Like-named read-outs stand apart in the source and are kept apart here.

Tests used:
[1] = test system: Pristionchus pacificus young adult animals; assay: Pristionchus pacificus young adult abnormal locomotory behaviour on solid agar; assay type: in vivo; settings: read-out: P. pacificus, young adult 1 h any phene at 1 h (EC50 (μM))
[2] = test system: Danio rerio (zebrafish) embryos; assay: Danio rerio (zebrafish) embryo abnormal developmental phenotype; assay type: in vivo
C. elegans L3 larvae = C. elegans L3 larvae abnormal locomotory behaviour on solid agar; settings: solid agar MYOB + E. coli OP50, mean of 4 replicates; for % C. elegans L3 larvae any phene 1 h (conc.): 1 h exposure; for % C. elegans L3 larvae any phene 6 h (conc.): 6 h exposure; for % C. elegans L3 larvae any phene 24 h (conc.): 24 h exposure
Protocol: 20 animals were scored after either 1, 6 or 24 hours of exposure to drug (as indicated) per replicate. […] Data are reported as the mean % of animals with abnormal phenotype over 4 independent replicates.

Strongyloides ratti L3 = assay type: in vivo; settings: 72 h incubation, 1 replicate
[3] = test system: Heligmosomoides polygyrus larval stage 3 (L3) worms; assay type: in vivo; settings: 72 h incubation, one replicate
[4] = test system: D. immitis larval stage 3 (L3) worms; assay: D. immitis L3 development assay; assay type: in vivo; settings: 72 h, read-out: D. immitis L3 development EC50 (μM)
[5] = 1 h exposure, tested at 3.75, 15 and 60 μM, NA = not active, no phenotype at 60 μM
[6] = 1 day post fertilization embryos through 48 h of development, tested at 15 and 3.75 μM, select compounds at 60 and 30 μM, read-out: D. rerio (zebrafish) any phenotype EC50
[7] = read-out: D. rerio (zebrafish) any phenotype EC50 (μM)

O=C(C1CCC1)N1CCN(c2ccc(F)cc2)CC1 [III-c]
EC50 [1, 5]: > 60 µM | EC50 [2, 6]: > 15 µM | % C. elegans L3 larvae any phene 1 h (conc.) (C. elegans L3 larvae; 3.75 uM): 0.0% | % C. elegans L3 larvae any phene 6 h (conc.) (C. elegans L3 larvae; 3.75 uM): 0.0% | % C. elegans L3 larvae any phene 24 h (conc.) (C. elegans L3 larvae; 3.75 uM): 0.0% | % C. elegans L3 larvae any phene 1 h (conc.) (C. elegans L3 larvae; 15 uM): 10.0% | % C. elegans L3 larvae any phene 6 h (conc.) (C. elegans L3 larvae; 15 uM): 0.0% | % C. elegans L3 larvae any phene 24 h (conc.) (C. elegans L3 larvae; 15 uM): 0.0% | % C. elegans L3 larvae any phene 1 h (conc.) (C. elegans L3 larvae; 60 uM): 27.5% | % C. elegans L3 larvae any phene 6 h (conc.) (C. elegans L3 larvae; 60 uM): 15.0% | % C. elegans L3 larvae any phene 24 h (conc.) (C. elegans L3 larvae; 60 uM): 0.0%

c1cc(N2CCN(CC3CCCCC3)CC2)ccn1 [IV-a]
EC50 [2, 7]: > 15 µM | % C. elegans L3 larvae any phene 1 h (conc.) (C. elegans L3 larvae; 3.75 uM): 0.0% | % C. elegans L3 larvae any phene 6 h (conc.) (C. elegans L3 larvae; 3.75 uM): 0.0% | % C. elegans L3 larvae any phene 24 h (conc.) (C. elegans L3 larvae; 3.75 uM): 0.0% | % C. elegans L3 larvae any phene 1 h (conc.) (C. elegans L3 larvae; 15 uM): 10.8% | % C. elegans L3 larvae any phene 6 h (conc.) (C. elegans L3 larvae; 15 uM): 0.0% | % C. elegans L3 larvae any phene 24 h (conc.) (C. elegans L3 larvae; 15 uM): 0.0% | % C. elegans L3 larvae any phene 1 h (conc.) (C. elegans L3 larvae; 60 uM): 24.2% | % C. elegans L3 larvae any phene 6 h (conc.) (C. elegans L3 larvae; 60 uM): 12.5% | % C. elegans L3 larvae any phene 24 h (conc.) (C. elegans L3 larvae; 60 uM): 0.0%

O=C(C1CCCC1)N1CCN(c2ccc([N+](=O)[O-])cc2)CC1 [III-b]
EC50 [1, 5]: > 60 µM | EC50 [2, 6]: 7.8 µM | % C. elegans L3 larvae any phene 1 h (conc.) (C. elegans L3 larvae; 3.75 uM): 0.0% | % C. elegans L3 larvae any phene 6 h (conc.) (C. elegans L3 larvae; 3.75 uM): 0.0% | % C. elegans L3 larvae any phene 24 h (conc.) (C. elegans L3 larvae; 3.75 uM): 0.0% | % C. elegans L3 larvae any phene 1 h (conc.) (C. elegans L3 larvae; 15 uM): 0.0% | % C. elegans L3 larvae any phene 6 h (conc.) (C. elegans L3 larvae; 15 uM): 0.0% | % C. elegans L3 larvae any phene 24 h (conc.) (C. elegans L3 larvae; 15 uM): 0.0% | % C. elegans L3 larvae any phene 1 h (conc.) (C. elegans L3 larvae; 60 uM): 9.2% | % C. elegans L3 larvae any phene 6 h (conc.) (C. elegans L3 larvae; 60 uM): 8.3% | % C. elegans L3 larvae any phene 24 h (conc.) (C. elegans L3 larvae; 60 uM): 0.0%

FC(F)(F)c1cccc(N2CCN(C3CCCCCC3)CC2)c1 [VI-h]
S. ratti L3 % lethality 25 μM (Strongyloides ratti L3): 0% | H. Polygyrus % lethality L3 25 μM [3]: 0% | EC50 [2, 7]: 7.8 µM | % C. elegans L3 larvae any phene 1 h (conc.) (C. elegans L3 larvae; 3.75 uM): 64.2% | % C. elegans L3 larvae any phene 6 h (conc.) (C. elegans L3 larvae; 3.75 uM): 0.0% | % C. elegans L3 larvae any phene 24 h (conc.) (C. elegans L3 larvae; 3.75 uM): 0.0% | % C. elegans L3 larvae any phene 1 h (conc.) (C. elegans L3 larvae; 15 uM): 100.0% | % C. elegans L3 larvae any phene 6 h (conc.) (C. elegans L3 larvae; 15 uM): 37.5% | % C. elegans L3 larvae any phene 24 h (conc.) (C. elegans L3 larvae; 15 uM): 25.0% | % C. elegans L3 larvae any phene 1 h (conc.) (C. elegans L3 larvae; 60 uM): 100.0% | % C. elegans L3 larvae any phene 6 h (conc.) (C. elegans L3 larvae; 60 uM): 100.0% | % C. elegans L3 larvae any phene 24 h (conc.) (C. elegans L3 larvae; 60 uM): 62.5%

Cc1cc([N+](=O)[O-])ccc1N1CCN(CC2CCCCC2)CC1 [V-a]
EC50 ([1]; 1 h): > 60 µM | EC50 [4]: 15 µM | EC50 [2, 7]: 5.1 µM | % C. elegans L3 larvae any phene 1 h (conc.) (C. elegans L3 larvae; 3.75 uM): 15.8% | % C. elegans L3 larvae any phene 6 h (conc.) (C. elegans L3 larvae; 3.75 uM): 0.0% | % C. elegans L3 larvae any phene 24 h (conc.) (C. elegans L3 larvae; 3.75 uM): 0.0% | % C. elegans L3 larvae any phene 1 h (conc.) (C. elegans L3 larvae; 15 uM): 33.3% | % C. elegans L3 larvae any phene 6 h (conc.) (C. elegans L3 larvae; 15 uM): 15.8% | % C. elegans L3 larvae any phene 24 h (conc.) (C. elegans L3 larvae; 15 uM): 0.0% | % C. elegans L3 larvae any phene 1 h (conc.) (C. elegans L3 larvae; 60 uM): 63.3% | % C. elegans L3 larvae any phene 6 h (conc.) (C. elegans L3 larvae; 60 uM): 27.5% | % C. elegans L3 larvae any phene 24 h (conc.) (C. elegans L3 larvae; 60 uM): 0.0%

O=C(c1ccc([N+](=O)[O-])cc1)N1CCN(C2CCCC2)CC1 [III-d]
EC50 [1, 5]: > 60 µM | EC50 [2, 6]: > 15 µM | % C. elegans L3 larvae any phene 1 h (conc.) (C. elegans L3 larvae; 3.75 uM): 0.8% | % C. elegans L3 larvae any phene 6 h (conc.) (C. elegans L3 larvae; 3.75 uM): 0.0% | % C. elegans L3 larvae any phene 24 h (conc.) (C. elegans L3 larvae; 3.75 uM): 0.0% | % C. elegans L3 larvae any phene 1 h (conc.) (C. elegans L3 larvae; 15 uM): 14.2% | % C. elegans L3 larvae any phene 6 h (conc.) (C. elegans L3 larvae; 15 uM): 1.7% | % C. elegans L3 larvae any phene 24 h (conc.) (C. elegans L3 larvae; 15 uM): 0.0% | % C. elegans L3 larvae any phene 1 h (conc.) (C. elegans L3 larvae; 60 uM): 30.8% | % C. elegans L3 larvae any phene 6 h (conc.) (C. elegans L3 larvae; 60 uM): 17.5% | % C. elegans L3 larvae any phene 24 h (conc.) (C. elegans L3 larvae; 60 uM): 0.0%

c1cc(N2CCN(CC3CCC3)CC2)ccn1 [IV-b]
EC50 [2, 7]: > 15 µM | % C. elegans L3 larvae any phene 1 h (conc.) (C. elegans L3 larvae; 3.75 uM): 4.2% | % C. elegans L3 larvae any phene 6 h (conc.) (C. elegans L3 larvae; 3.75 uM): 0.0% | % C. elegans L3 larvae any phene 24 h (conc.) (C. elegans L3 larvae; 3.75 uM): 0.0% | % C. elegans L3 larvae any phene 1 h (conc.) (C. elegans L3 larvae; 15 uM): 21.7% | % C. elegans L3 larvae any phene 6 h (conc.) (C. elegans L3 larvae; 15 uM): 0.8% | % C. elegans L3 larvae any phene 24 h (conc.) (C. elegans L3 larvae; 15 uM): 0.0% | % C. elegans L3 larvae any phene 1 h (conc.) (C. elegans L3 larvae; 60 uM): 30.0% | % C. elegans L3 larvae any phene 6 h (conc.) (C. elegans L3 larvae; 60 uM): 4.2% | % C. elegans L3 larvae any phene 24 h (conc.) (C. elegans L3 larvae; 60 uM): 1.7%

O=[N+]([O-])c1cccc(CN2CCN(C3CCCCC3)CC2)c1 [II-a]
EC50 ([1]; 1 h): > 60 µM | % C. elegans L3 larvae any phene 1 h (conc.) (C. elegans L3 larvae; 3.75 uM): 0.8% | % C. elegans L3 larvae any phene 6 h (conc.) (C. elegans L3 larvae; 3.75 uM): 0.0% | % C. elegans L3 larvae any phene 24 h (conc.) (C. elegans L3 larvae; 3.75 uM): 0.0% | % C. elegans L3 larvae any phene 1 h (conc.) (C. elegans L3 larvae; 15 uM): 0.0% | % C. elegans L3 larvae any phene 6 h (conc.) (C. elegans L3 larvae; 15 uM): 0.0% | % C. elegans L3 larvae any phene 24 h (conc.) (C. elegans L3 larvae; 15 uM): 0.0% | % C. elegans L3 larvae any phene 1 h (conc.) (C. elegans L3 larvae; 60 uM): 6.7% | % C. elegans L3 larvae any phene 6 h (conc.) (C. elegans L3 larvae; 60 uM): 2.5% | % C. elegans L3 larvae any phene 24 h (conc.) (C. elegans L3 larvae; 60 uM): 0.0%
